# US10550388B2, “Targeting pleiotrophin signaling to limit high-grade glioma invasion” (The Board of Trustees of the Leland Stanford Junior …, priority 2017, dated 2020)
# Columns and labels:
# SU-DIPG-XIII FL cells [1] = experiment: Matrigel invasion assay (Boyden chamber) of DIPG cells; type: cell-based, human; conditions: 72 hours; for DIPG invasion toward SVZ hNPC CM: inhibitor added to the cells in the top insert, dose curve, vehicle DMSO control
# Protocol: To test for chemoattraction and invasion toward neural precursor cell conditioned media or another candidate chemoattractant, a single-cell suspension of 100,000 DIPG cells in Tumor Stem Media (TSM) base (with B27 (−A) and heparin, without growth factors) was seeded in the top inserts of BioCoat growth factor reduced Matrigel invasion chambers (Corning, Bedford, Mass.), after rehydration of the inserts. Chemoattractant media was added to the bottom of the chamber. All conditions were plated in triplicate. After 72 hours, media was aspirated, and the non-invading cells on top of the layer of Matrigel were scrubbed off. The invading cells were fixed in 4% paraformaldehyde and then stained with 0.1% crystal violet in 10% methanol in distilled water. The number of invading cells was quantified by the intensity of the crystal violet dye on the invading side of the Matrigel. The dye was collected in 10% acetic acid, and absorbance was measured at 595 nm.
# To test the ROCK or HSP90 inhibitors in the Matrigel invasion assay, the inhibitors were added to the suspension of glioma cells in TSM base (with B27 (−A) and heparin) seeded in the top inserts at the appropriate concentrations, and neural precursor cell conditioned media was plated in the bottom chambers. The rest of the procedure was performed as described above.
# [2] = rodent models (Egorin et al. 2001); cited from earlier work
# SU-DIPG-XIII FL cells [3] = experiment: CellTiter-Glo cell viability assay; type: cell-based, human; conditions: increasing doses of inhibitor; 72 hours
# Protocol: To assess cell viability, 5,000 DIPG cells per well were seeded in base media or full growth media in a 96-well plate. Inhibitors were added at the appropriate concentrations. After 72 hours, CellTiter-Glo reagent 2.0 was added at a 1:1 ratio, and cells were lysed. Luminescence was measured after stabilization of signal for 10 minutes at room temperature.
# pleiotrophin = experiment: Knockdown of pleiotrophin expression in the mouse SVZ; type: in vivo; conditions: stereotactic injection into the mouse SVZ; vs scrambled shRNA control
# Protocol: (§1) Mice used for shRNA lentivirus studies received shRNA-expressing lentivirus in the SVZ at P27-29 and DIPG cells in the left pons at P34-36. For lentiviral injections, 2 μL of shRNA-expressing lentivirus were stereotactically injected into the SVZ. Stereotactic coordinates used were: 1.3 mm lateral to midline, 0.1 mm posterior to bregma suture, and 2 mm deep. Virus was injected and the needle was withdrawn according to the same procedure as described above.
# Mice were intraperitoneally injected with Avertin (tribromoethanol) for anesthesia, and then transcardially perfused with 20 mL of ice-cold PBS. Brains were dissected out and fixed in 4% paraformaldehyde in PBS overnight at 4° C., and were then transferred to 30% sucrose in PBS for cryoprotection. Brains were embedded in Tissue-Tek O.C.T. (Sakura, Torrance, Calif.). Brains from mice older than P10 were sliced into 40 μm coronal or sagittal sections using a sliding microtome (Microm HM450; Thermo Scientific, Waltham, Mass.). Brains from mice age P0 to P10 were sliced into 25 μm coronal sections using a cryostat (Leica Biosystems CM3050 S; 1058 Wetzlar, Germany). For immunohistochemistry, a 1 in 6 series of 25 μm or 40 μm sections was incubated in blocking solution (3% normal donkey serum, 0.3% Triton X-100 in TBS) at room temperature for 1 hour. […]
# SU-DIPG-XIII FL cells [4] = experiment: shRNA-expressing lentivirus injected into the SVZ of orthotopically xenografted mice; type: in vivo, NSG mice; conditions: vs scrambled shRNA control; for DIPG cells invading the SVZ: 16 weeks following pontine xenograft
# Protocol: NSG mice at age P34-36 were orthotopically xenografted with SU-DIPG-XIII frontal lobe CMV-GFP-luciferase cells, in a similar procedure to as previously described (Grasso et al., supra; Venkatesh et al. (2015) Cell 161, 803-816). Briefly, a single-cell suspension of SU-DIPG-XIII frontal lobe CMV-GFP-luciferase cells at passage 16-19 was prepared in sterile HBSS immediately before beginning the xenograft procedure. 600,000 cells in 3 μL were stereotactically injected into the pons of the left hemisphere of NSG mice, through a 31-gauge burr hole. Stereotactic coordinates used were: 1 mm lateral to midline, 0.8 mm posterior to lambda suture, and 5 mm deep. Cells were injected at a rate of 0.4 μL/min using a digital pump and a 31-gauge Hamilton syringe. After infusion of cells, the syringe needle was kept in place for 2 minutes, and then withdrawn manually at a rate of 0.875 mm/min to minimize the backflow of cells.
# as §1
# Mice were imaged using an IVIS Spectrum to ensure tumor engraftment and monitor tumor size. Mice were anesthetized under 1% isoflurane, intraperitoneally injected with luciferin (15 mg/kg), and imaged for bioluminescence every minute until the peak total flux was reached.
# For quantification of DIPG invasion of the SVZ after knock down of targets in the SVZ, 5 NSG mice per group were injected with shRNA-expressing lentivirus in bilateral SVZs and orthotopically xenografted with SU-DIPG-XIII FL in the left pons. Mice were perfused for analysis 16 weeks after xenograft. A 1:6 series of coronal slices from each mouse brain was immunostained and imaged, and the number of GFP^+ HNA^+ glioma cells within 200 μm of the lateral ventricles in all slices containing lateral ventricles was manually counted.
# For quantification of neural stem/precursor cells in the SVZ after knock down of PTN in the SVZ, a 1:6 series of coronal slices from each mouse was immunostained and imaged, and the number of Sox2^+ neural stem/precursor cells in a 20×Z-stack was manually counted. The density of Sox2^+ cells was calculated as cells/mm^3.
molecule,measurement,setting,value
"C=CCNC1=C2C[C@@H](C)C[C@H](OC)[C@H](O)[C@@H](C)/C=C(\C)[C@H](OC(N)=O)[C@@H](OC)/C=C\C=C(/C)C(=O)NC(=CC1=O)C2=O [17-AAG, tanespimycin, reference compound]",concentrations at which invasion toward SVZ hNPC CM is decreased,"SU-DIPG-XIII FL cells [1]; in vitro, inhibitor in the top insert",above 1 μM
same,Brain penetration,[2],less than 1 μM
"CCn1c(-c2nonc2N)nc2cnc(Oc3cccc(NC(=O)c4ccc(OCCN5CCOCC5)cc4)c3)cc21 [GSK 269962A, reference compound]",cell viability of DIPG cells,SU-DIPG-XIII FL cells [3],do not affect cell viability at sub-μM concentrations
same,DIPG invasion toward SVZ hNPC CM,SU-DIPG-XIII FL cells [1],decreased DIPG invasion toward SVZ hNPC CM in a dose-dependent manner
"CC1=C(C(=O)Nc2cc3cn[nH]c3cc2F)C(c2ccc(C(F)(F)F)cc2)CC(=O)N1 (stereo not drawn) [GSK 429286, reference compound]",cell viability of DIPG cells,SU-DIPG-XIII FL cells [3],do not affect cell viability at sub-μM concentrations
same,DIPG invasion toward SVZ hNPC CM,SU-DIPG-XIII FL cells [1],decreased DIPG invasion toward SVZ hNPC CM in a dose-dependent manner
"sh-Ptn: lentivirus-expressed shRNA against mouse PTN, Sigma TRCNO000071676, SEQ ID NO: 8 (CCGGGCACAATGCTGACTGTCAGAACTCGAGTTCTGACAGTCAGCATTGTGCTTTTTG)",knockdown of pleiotrophin expression,pleiotrophin,effective knockdown of pleiotrophin expression
same,DIPG cells invading the SVZ,SU-DIPG-XIII FL cells [4],fewer orthotopically xenografted GFP^+ HNA^+ SU-DIPG-XIII FL cells invaded the SVZ
same,DIPG cells invading the SVZ,SU-DIPG-XIII FL cells [4]; listed as shRNA targeting Ptn,fewer DIPG cells invaded the SVZ
same,density of Sox2+ neural stem/precursor cells in the SVZ,SU-DIPG-XIII FL cells [4],equivalent
same,tumor engraftment (bioluminescent flux),SU-DIPG-XIII FL cells [4],equivalent
same,density of Sox2+ neural stem/precursor cells in the SVZ,SU-DIPG-XIII FL cells [4]; listed as Ptn shRNA,equivalent numbers of Sox2^+ NPCs
